For 46 compounds, IC50 results are on record in patent US20110306597A1, “Nicotinamide Derivatives” (priority 2008, published 2011).

pIC50: −log10 of the molar value.

Sequence of human recombinant H-PGDS (O60760 whole entry): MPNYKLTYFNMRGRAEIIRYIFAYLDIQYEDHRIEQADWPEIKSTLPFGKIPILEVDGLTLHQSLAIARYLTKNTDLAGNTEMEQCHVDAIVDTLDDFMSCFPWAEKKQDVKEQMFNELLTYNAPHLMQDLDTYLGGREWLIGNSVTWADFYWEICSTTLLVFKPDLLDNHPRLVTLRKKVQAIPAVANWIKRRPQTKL

The target of the assay is human recombinant H-PGDS (Homo sapiens, UniProt O60760). Put plainly: Fluorescence Intensity h-PGDS TBA Enzyme Assay. The conditions noted are these: 1:175,000 human recombinant H-PGDS, highest inhibitor concentration typically 1 μM. The format is biochemical. An outline of the steps:
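Readout is PGH2 depletion: after a 42 s reaction with 5.0 μM PGH2 and 2.5 mM glutathione (pH 8.0 Tris, 10 min inhibitor preincubation), Fe(II) converts leftover PGH2 to MDA, which forms a fluorescent TBA complex. IC50s come from 11-point, 3-fold duplicate curves, 4-parameter fit.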
With `CCOC(=O)C1(NC(=O)c2ccc(-c3ccccc3)nc2)CCOCC1` [Example 372, Ethyl 4-{[(6-phenylpyridin-3-yl)carbonyl]amino}tetrahydro-2H-pyran-4-carboxylate], the pIC50 was 6.60.
To `O=C(NCCN1CCCCC1=O)c1ccc(-c2ccccc2)nc1` [Example 373, N-[2-(2-Oxopiperidin-1-yl)ethyl]-6-phenylnicotinamide] belongs 7.40; to `CN(C)C(=O)CNC(=O)c1ccc(-c2ccccc2)nc1` [Example 374, N-[2-(Dimethylamino)-2-oxoethyl]-6-phenylnicotinamide], 7.04.
As to `O=C(NCCN1CCNC1=O)c1ccc(-c2ccccc2)nc1` [Example 375, N-[2-(2-Oxoimidazolidin-1-yl)ethyl]-6-phenylnicotinamide], the pIC50 was 7.59.
To `N#CC(NC(=O)c1ccc(-c2ccccc2)nc1)C(=O)NCCN1CCOCC1` (stereo not shown) [Example 376, N-{1-Cyano-2-[(2-morpholin-4-ylethyl)amino]-2-oxoethyl}-6-phenylnicotinamide] belongs 7.26.
Regarding `O=C(NC1CCN(Cc2ccc(Cl)cc2)C1=O)c1ccc(-c2ccccc2)nc1` (stereo not shown) [Example 377, N-[1-(4-Chlorobenzyl)-2-oxopyrrolidin-3-yl]-6-phenylnicotinamide], the pIC50 is 7.95.
To `CC(C)CNC(=O)c1ccc(-c2ccccc2)nc1` [Example 378, N-Isobutyl-6-phenylnicotinamide] belongs 7.68; to `O=C(NCc1ccco1)c1ccc(-c2ccccc2)nc1` [Example 379, N-(2-Furylmethyl)-6-phenylnicotinamide], 8.32; to `O=C(NCc1ccccc1F)c1ccc(-c2ccccc2)nc1` [Example 380, N-(2-Fluorobenzyl)-6-phenylnicotinamide], 8.68.
To `CCCCCNC(=O)c1ccc(-c2ccccc2)nc1` [Example 381, N-Pentyl-6-phenylnicotinamide] belongs 8.12; to `O=C(NCCN1CCN(Cc2ccccc2)CC1)c1ccc(-c2ccccc2)nc1` [Example 382, N-[2-(4-Benzylpiperazin-1-yl)ethyl]-6-phenylnicotinamide], 8.04; to `O=C(NC1CCN(Cc2ccc(Cl)c(Cl)c2)C1=O)c1ccc(-c2ccccc2)nc1` (stereo not shown) [Example 383, N-[1-(3,4-Dichlorobenzyl)-2-oxopyrrolidin-3-yl]-6-phenylnicotinamide], 7.78.
To `CCOC(=O)CC(NC(=O)c1ccc(-c2ccccc2)nc1)c1ccccc1Cl` (stereo not shown) [Example 384, ethyl 3-(2-Chlorophenyl)-3-{[(6-phenylpyridin-3-yl)carbonyl]amino}propanoate] belongs 7.40; to `O=C(NCc1ccc(C(F)(F)F)cc1)c1ccc(-c2ccccc2)nc1` [Example 385, 6-Phenyl-N-[4-(trifluoromethyl)benzyl] nicotinamide], 7.37.
For the compound `CCOC(=O)CCCNC(=O)c1ccc(-c2ccccc2)nc1` [Example 386, Ethyl 4-{[(6-phenylpyridin-3-yl)carbonyl]amino}butanoate], the pIC50 was 7.63.
To `CC(=O)N1CCC(CNC(=O)c2ccc(-c3ccccc3)nc2)CC1` [Example 387, N-[(1-Acetylpiperidin-4-yl)methyl]-6-phenylnicotinamide] belongs 7.68.
To `CN1CCC(CCNC(=O)c2ccc(-c3ccccc3)nc2)CC1` [Example 388, N-[2-(1-Methylpiperidin-4-yl)ethyl]-6-phenylnicotinamide] belongs 7.80.
To `O=C(NCCN1CCOCC1)c1ccc(-c2ccccc2)nc1` [Example 389, N-(2-Morpholin-4-ylethyl)-6-phenylnicotinamide] belongs 7.62; to `CC(O)CNC(=O)c1ccc(-c2ccccc2)nc1` (stereo not shown) [Example 390, N-(2-Hydroxypropyl)-6-phenylnicotinamide], 7.89; to `CCn1c(CCNC(=O)c2ccc(-c3ccccc3)nc2)nc2cc(C(=O)NCCOC)ccc21` [Example 391, 1-Ethyl-N-(2-methoxyethyl)-2-(2-{[(6-phenylpyridin-3-yl)carbonyl]amino}ethyl)-1H-benzimidazole-5-carboxamide], 9.04.
With `Cc1cccc(NC(=O)c2ccc(-c3ccccc3)nc2)c1` [Example 392, N-(3-Methylphenyl)-6-phenylnicotinamide], the negative logarithm of the IC50 (pIC50) was 8.95.
To `CCOC(=O)C(CNC(=O)c1ccc(-c2ccccc2)nc1)C1CCCC1` (stereo not shown) [Example 393, Ethyl 2-cyclopentyl-3-{[(6-phenylpyridin-3-yl)carbonyl]amino}propanoate] belongs 8.71.
Consider `CCOC(=O)CC(NC(=O)c1ccc(-c2ccccc2)nc1)c1ccccc1` (stereo not shown) [Example 394, Ethyl 3-phenyl-3-{[(6-phenylpyridin-3-yl)carbonyl]amino}propanoate], for which the pIC50 is 7.61.
To `O=C(NCCCNc1ccccn1)c1ccc(-c2ccccc2)nc1` [Example 395, 6-Phenyl-N-[3-(pyridin-2-ylamino)propyl]nicotinamide] belongs 8.39; to `CCOC(=O)CC[C@H](NC(=O)c1ccc(-c2ccccc2)nc1)C(=O)OCC` [Example 396, Diethyl N-[(6-phenylpyridin-3-yl)carbonyl]-L-glutamate], 8.52.
To `CNS(=O)(=O)c1ccc(CNC(=O)c2ccc(-c3ccccc3)nc2)cc1` [Example 397, N-{4-[(Methylamino)sulfonyl]benzyl}-6-phenylnicotinamide] belongs 7.73; to `Cc1cc(Br)ccc1NC(=O)c1ccc(-c2ccccc2)nc1` [Example 398, N-(4-Bromo-2-methylphenyl)-6-phenylnicotinamide], 8.48; to `O=C(NCC1CCCCO1)c1ccc(-c2ccccc2)nc1` (stereo not shown) [Example 399, 6-Phenyl-N-(tetrahydro-2H-pyran-2-ylmethyl) nicotinamide], 7.56.
To `COc1ccc(C(CNC(=O)c2ccc(-c3ccccc3)nc2)N2CCOCC2)cc1` (stereo not shown) [Example 400, N-[2-(4-Methoxyphenyl)-2-morpholin-4-ylethyl]-6-phenylnicotinamide] belongs 7.06; to `CCOC(=O)CC(NC(=O)c1ccc(-c2ccccc2)nc1)c1ccc(Cl)cc1` (stereo not shown) [Example 401, Ethyl 3-(4-chlorophenyl)-3-{[(6-phenylpyridin-3-yl)carbonyl]amino}propanoate], 7.51.
For `O=C(Nc1cccn(Cc2ccccc2)c1=O)c1ccc(-c2ccccc2)nc1` [Example 402, N-(1-Benzyl-2-oxo-1,2-dihydropyridin-3-yl)-6-phenylnicotinamide], the pIC50 is 8.10.
For the compound `COC(=O)[C@H](Cc1ccc(Cl)cc1)NC(=O)c1ccc(-c2cccc(F)c2)nc1` [Example 403, Methyl 4-chloro-N-{[6-(3-fluorophenyl)pyridin-3-yl]carbonyl}phenylalaninate], the negative-log IC50 (pIC50) is 6.62.
Turning to `Cc1ccc(CNC(=O)c2ccc(-c3cccc(F)c3)nc2)cc1` [Example 404, 6-(3-Fluorophenyl)-N-(4-methylbenzyl)nicotinamide], the pIC50 was 7.76.
With `O=C(NCc1cccc(F)c1)c1ccc(-c2cccc(F)c2)nc1` [Example 405, N-(3-Fluorobenzyl)-6-(3-fluorophenyl)nicotinamide], the negative logarithm of the IC50 (pIC50) was 6.68.
To `CCOC(=O)CC(NC(=O)c1ccc(-c2cccc(F)c2)nc1)c1ccccc1` (stereo not shown) [Example 406, Ethyl 3-({[6-(3-fluorophenyl)pyridin-3-yl]carbonyl}amino)-3-phenylpropanoate] belongs 7.00; to `CCOC(=O)CC(NC(=O)c1ccc(-c2cccc(F)c2)nc1)c1ccc(Cl)cc1` (stereo not shown) [Example 407, Ethyl 3-(4-chlorophenyl)-3-({[6-(3-fluorophenyl)pyridin-3-yl]carbonyl}amino)propanoate], 6.83.
To `O=C(NCc1ccc(Br)cc1)c1ccc(-c2cccc(F)c2)nc1` [Example 408, N-(4-Bromobenzyl)-6-(3-fluorophenyl)nicotinamide] belongs 6.99; to `O=C(NCc1ccc(C(F)(F)F)cc1)c1ccc(-c2cccc(F)c2)nc1` [Example 409, 6-(3-Fluorophenyl)-N-[4-(trifluoromethyl)benzyl] nicotinamide], 6.63.
To `O=C(NCc1ccc(Cl)cc1)c1ccc(-c2cccc(F)c2)nc1` [Example 410, N-(4-Chlorobenzyl)-6-(3-fluorophenyl)nicotinamide] belongs 7.40; to `CCOC(=O)CC(NC(=O)c1ccc(-c2cccc(F)c2)nc1)c1ccccc1Cl` (stereo not shown) [Example 411, Ethyl 3-(2-chlorophenyl)-3-({[6-(3-fluorophenyl)pyridin-3-yl]carbonyl}amino)propanoate], 6.90; to `CSc1ccc(CNC(=O)c2ccc(-c3cccc(F)c3)nc2)cc1` [Example 412, 6-(3-Fluorophenyl)-N-[4-(methylthio)benzyl] nicotinamide], 7.33.
On to `NS(=O)(=O)c1ccc(CNC(=O)c2ccc(-c3cccc(F)c3)nc2)cc1` [Example 413, N-[4-(Aminosulfonyl)benzyl]-6-(3-fluorophenyl)nicotinamide], for which the pIC50 is 7.03.
To `COc1ccc(CNC(=O)c2ccc(-c3cccc(F)c3)nc2)cc1` [Example 414, 6-(3-Fluorophenyl)-N-(4-methoxybenzyl)nicotinamide] belongs 7.45; to `CCCCNC(=O)c1ccc(-c2cccc(F)c2)nc1` [Example 415, N-Butyl-6-(3-fluorophenyl)nicotinamide], 7.61; to `COC(=O)c1ccc(CNC(=O)c2ccc(-c3cccc(F)c3)nc2)cc1` [Example 416, Methyl 4-[({[6-(3-fluorophenyl)pyridin-3-yl]carbonyl}amino)methyl] benzoate], 7.35.
To `CC(C)(CNC(=O)c1ccc(-c2cccc(F)c2)nc1)N1CCOCC1` [Example 417, 6-(3-Fluorophenyl)-N-(2-methyl-2-morpholin-4-ylpropyl)nicotinamide] belongs 7.40.
